In patent US12679848B2, “Plasma kallikrein inhibitors” (Merck Sharp & Dohme LLC, priority 2020, dated 2026):

Key:
human factor XIa = human factor XIa (Homo sapiens, UniProt P03951); experiment: Factor XIa Assay; assay type: biochemical; conditions: human factor XIa 0.04 nM, substrate GPR-AFC, 30 min pre-incubation, 25° C., pH 7.4; read-out: FXIa IC50
Human plasma kallikrein = target: T1, Human plasma kallikrein (Homo sapiens, UniProt P03952); experiment: Plasma Kallikrein Assay; assay type: biochemical; conditions: purified Human plasma kallikrein 0.5 nM, substrate Acetyl-K-P-R-AFC, HEPES pH 7.4; read-out: PKal IC50
T1 construct: yields a heavy chain (371 amino acids) and a light chain (248 amino acids); The active site of plasma kallikrein is contained in the light chain; purchased Enzyme Research Laboratories
Procedure, shortened: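 Purified human plasma kallikrein at 0.5 nM final with substrate Acetyl-K-P-R-AFC at […], in 50 mM HEPES pH 7.4, 150 mM NaCl, 5 mM CaCl2, 0.1% PEG 8000, at rt or 37° C after enzyme-inhibitor equilibration. IC50 from four-parameter logistic fit of fluorescence rate; Ki via Cheng-Prusoff.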

Sequence of human factor XIa (P03951 388-625 limits assumed): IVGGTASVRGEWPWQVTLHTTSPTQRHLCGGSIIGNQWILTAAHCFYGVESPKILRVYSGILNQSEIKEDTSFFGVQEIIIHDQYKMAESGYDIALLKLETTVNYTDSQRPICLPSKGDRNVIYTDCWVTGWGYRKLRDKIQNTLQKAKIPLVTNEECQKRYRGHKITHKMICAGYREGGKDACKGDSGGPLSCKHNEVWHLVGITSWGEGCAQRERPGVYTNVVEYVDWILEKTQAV
Sequence of human factor XIa (P03951 19-387 partner limits assumed): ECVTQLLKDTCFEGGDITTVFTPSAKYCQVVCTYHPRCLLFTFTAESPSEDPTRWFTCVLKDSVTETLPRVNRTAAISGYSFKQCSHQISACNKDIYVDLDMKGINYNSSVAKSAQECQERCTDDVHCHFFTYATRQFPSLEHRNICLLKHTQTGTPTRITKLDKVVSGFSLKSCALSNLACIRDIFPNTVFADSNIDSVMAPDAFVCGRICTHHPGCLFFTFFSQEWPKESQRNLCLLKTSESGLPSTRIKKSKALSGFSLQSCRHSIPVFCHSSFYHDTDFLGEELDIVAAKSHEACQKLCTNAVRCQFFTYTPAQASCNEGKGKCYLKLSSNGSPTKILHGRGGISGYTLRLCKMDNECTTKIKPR
T1 sequence (P03952 391-638 limits assumed): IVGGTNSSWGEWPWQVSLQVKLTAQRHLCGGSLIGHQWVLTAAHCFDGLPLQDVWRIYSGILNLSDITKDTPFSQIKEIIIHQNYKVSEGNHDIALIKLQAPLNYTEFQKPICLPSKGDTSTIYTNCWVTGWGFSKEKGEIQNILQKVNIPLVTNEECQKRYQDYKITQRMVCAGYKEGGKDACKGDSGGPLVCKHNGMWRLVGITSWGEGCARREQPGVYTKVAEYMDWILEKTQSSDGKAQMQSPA
T1 sequence (P03952 20-390 partner limits assumed): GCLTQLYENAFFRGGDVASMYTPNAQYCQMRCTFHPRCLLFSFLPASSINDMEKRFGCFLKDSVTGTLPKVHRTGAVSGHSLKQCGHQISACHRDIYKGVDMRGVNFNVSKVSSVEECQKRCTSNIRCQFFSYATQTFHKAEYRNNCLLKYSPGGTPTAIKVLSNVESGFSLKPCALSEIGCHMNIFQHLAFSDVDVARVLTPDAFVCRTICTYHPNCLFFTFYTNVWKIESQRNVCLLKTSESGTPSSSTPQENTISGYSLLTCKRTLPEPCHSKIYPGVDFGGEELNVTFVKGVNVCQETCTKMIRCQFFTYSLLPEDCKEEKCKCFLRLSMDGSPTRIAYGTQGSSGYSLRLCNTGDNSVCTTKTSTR

Work on `Nc1c(C(=O)N2CCC[C@@]3(C2)OC(=O)Nc2ccc(Cl)c(F)c23)cnn1C(C1CC1)C(F)(F)F` (single isomer, unassigned) [Example 125, (R)-1'-(5-Amino-1-((S or R)-1-cyclopropyl-2,2,2-trifluoroethyl)-1H-pyrazole-4-carbonyl)-6-chloro-5-fluorospiro[benzo[d][1,3]oxazine-4,3'-piperidin]-2(1H)-one] yielded an IC50 (human factor XIa) of 154 nM and an IC50 (Human plasma kallikrein) of 4.5 nM.

`Nc1c(C(=O)N2CCC[C@@]3(C2)OC(=O)Nc2ccc(Cl)c(F)c23)cnn1-c1ccccc1OCC(F)(F)F` [Example 99, (R)-1'-(5-Amino-1-(2-(2,2,2-trifluoroethoxy)phenyl)-1H-pyrazole-4-carbonyl)-6-chloro-5-fluorospiro[benzo[d][1,3]oxazine-4,3'-piperidin]-2(1H)-one] showed an IC50 (human factor XIa) of 1080 nM and an IC50 (Human plasma kallikrein) of 13.3 nM.

Work on `Nc1c(C(=O)N2CCC[C@@]3(C2)OC(=O)Nc2ccc(Cl)c(F)c23)cnn1-c1cc(F)ccc1F` [Example 76, (R)-1'-(5-Amino-1-(2,5-difluorophenyl)-1H-pyrazole-4-carbonyl)-6-chloro-5-fluorospiro[benzo[d][1,3]oxazine-4,3'-piperidin]-2(1H)-one] yielded an IC50 (human factor XIa) of 1060 nM and an IC50 (Human plasma kallikrein) of 29.5 nM.

In the case of `O=C1Nc2ccc(Cl)c(F)c2[C@@]2(CCCN(C(=O)c3cnn(Cc4ccc(F)cc4)c3O)C2)O1` [Example 132, (R)-6-Chloro-5-fluoro-1′-(1-(4-fluorobenzyl)-5-hydroxy-1H-pyrazole-4-carbonyl)spiro[benzo[d][1,3]oxazine-4,3′-piperidin]-2(1H)-one], the IC50 (human factor XIa) is reported as no less than 10000 nM and the IC50 (Human plasma kallikrein) is reported as 17.8 nM.

Work on `Nc1c(C(=O)N2CCC[C@@]3(C2)OC(=O)Nc2ccc(Cl)c(F)c23)cnn1-c1ccncc1Cl` [Example 73, (R)-1'-(5-Amino-1-(3-chloropyridin-4-y1)-1H-pyrazole-4-carbonyl)-6-chloro-5-fluorospiro[benzo[d][1,3]oxazine-4,3'-piperidin]-2(1H)-one] yielded an IC50 (human factor XIa) of 316 nM and an IC50 (Human plasma kallikrein) of 22.5 nM.

`Nc1c(C(=O)N2CCC[C@@]3(C2)OC(=O)Nc2ccc(Cl)c(F)c23)cnn1-c1ccnc2c(F)cccc12` [Example 104, (R)-1'-(5-Amino-1-(8-fluoroquinolin-4-y1)-1H-pyrazole-4-carbonyl)-6-chloro-5-fluorospiro[benzo[d][1,3]oxazine-4,3'-piperidin]-2(1H)-one] was tested, and the IC50 (human factor XIa) was 562 nM and the IC50 (Human plasma kallikrein) was 9.5 nM.

Work on `Nc1c(C(=O)N2CCC[C@@]3(C2)OC(=O)Nc2ccc(Cl)c(F)c23)cnn1-c1ccc(Cl)cc1Cl` [Example 65, (R)-1'-(5-Amino-1-(2,4-dichlorophenyl)-1H-pyrazole-4-carbonyl)-6-chloro-5-fluorospiro[benzo[d][1,3]oxazine-4,3'-piperidin]-2(1H)-one] yielded an IC50 (human factor XIa) of 160 nM and an IC50 (Human plasma kallikrein) of 37.5 nM.

In the case of `Cc1noc(C)c1Cn1ncc(C(=O)N2CCC[C@@]3(C2)OC(=O)Nc2ccc(Cl)c(F)c23)c1N` [Example 11, (R)-1'-(5-Amino-1-((3,5-dimethylisoxazol-4-yl)methyl)-1H-pyrazole-4-carbonyl)-6-chloro-5-fluorospiro[benzo[d][1,3]oxazine-4,3'-piperidin]-2(1H)-one], the IC50 (human factor XIa) is reported as 438 nM and the IC50 (Human plasma kallikrein) is reported as 1.7 nM.

`COc1c(F)cc(F)cc1-n1ncc(C(=O)N2CCC[C@@]3(C2)OC(=O)Nc2ccc(Cl)c(F)c23)c1N` [Example 101, (R)-1'-(5-Amino-1-(3,5-difluoro-2-methoxyphenyl)-1H-pyrazole-4-carbonyl)-6-chloro-5-fluorospiro[benzo[d][1,3]oxazine-4,3'-piperidin]-2(1H)-one] gave an IC50 (human factor XIa) of 1310 nM and an IC50 (Human plasma kallikrein) of 30.6 nM.

For `Nc1c(C(=O)N2CCC[C@@]3(C2)OC(=O)Nc2ccc(Cl)c(F)c23)cnn1-c1c(F)cccc1F` [Example 93, (R)-1'-(5-Amino-1-(2,6-difluorophenyl)-1H-pyrazole-4-carbonyl)-6-chloro-5-fluorospiro[benzo[d][1,3]oxazine-4,3'-piperidin]-2(1H)-one], the IC50 (human factor XIa) was 418 nM and the IC50 (Human plasma kallikrein) was 10.4 nM.

In the case of `Nc1c(C(=O)N2CCC[C@@]3(C2)OC(=O)Nc2ccc(Cl)c(F)c23)cnn1C1(C(F)(F)F)CC1` [Example 50, (R)-1'-(5-Amino-1-(1-(trifluoromethyl)cyclopropyl)-1H-pyrazole-4-carbonyl)-6-chloro-5-fluorospiro[benzo[d][1,3]oxazine-4,3'-piperidin]-2(1H)-one], the IC50 (human factor XIa) is reported as 684 nM and the IC50 (Human plasma kallikrein) is reported as 8.3 nM.

With `Nc1c(C(=O)N2CCC[C@@]3(C2)OC(=O)Nc2ccc(Cl)c(F)c23)cnn1CCC(F)(F)F` [Example 27, (R)-1'-(5-Amino-1-(3,3,3-trifluoropropyl)-1H-pyrazole-4-carbonyl)-6-chloro-5-fluorospiro[benzo[d][1,3]oxazine-4,3'-piperidin]-2(1H)-one] the IC50 (human factor XIa) was 699 nM and the IC50 (Human plasma kallikrein) was 18.8 nM.

Molecule `Nc1c(C(=O)N2CCC[C@@]3(C2)OC(=O)Nc2ccc(Cl)c(F)c23)cnn1CC1(C(F)(F)F)CC1` [Example 26, (R)-1'-(5-Amino-1-((1-(trifluoromethyl)cyclopropyl)methyl)-1H-pyrazole-4-carbonyl)-6-chloro-5-fluorospiro[benzo[d][1,3]oxazine-4,3'-piperidin]-2(1H)-one] has an IC50 (human factor XIa) of 352 nM and an IC50 (Human plasma kallikrein) of 8.3 nM.

With `Cc1ccc(C)c(-n2ncc(C(=O)N3CCC[C@@]4(C3)OC(=O)Nc3ccc(Cl)c(F)c34)c2N)c1` [Example 87, (R)-1'-(5-Amino-1-(2,5-dimethylphenyl)-1H-pyrazole-4-carbonyl)-6-chloro-5-fluorospiro[benzo[d][1,3]oxazine-4,3'-piperidin]-2(1H)-one] the IC50 (human factor XIa) was 1170 nM and the IC50 (Human plasma kallikrein) was 26.4 nM.

Work on `Cc1ccc(-n2ncc(C(=O)N3CCC[C@@]4(C3)OC(=O)Nc3ccc(Cl)c(F)c34)c2N)c(F)c1` [Example 66, (R)-1'-(5-Amino-1-(2-fluoro-4-methylpheny1)-1H-pyrazole-4-carbonyl)-6-chloro-5-fluorospiro[benzo[d][1,3]oxazine-4,3'-piperidin]-2(1H)-one] yielded an IC50 (human factor XIa) of 242 nM and an IC50 (Human plasma kallikrein) of 39 nM.

With `CC1(C)CN(C(=O)c2cnn(CC(F)(F)F)c2N)C[C@]2(C1)OC(=O)Nc1ccc(Cl)c(F)c12` [Example 2, (R)-1′-(5-Amino-1-(2,2,2-trifluoroethyl)-1H-pyrazole-4-carbonyl)-6-chloro-5-fluoro-5′,5′-dimethylspiro[benzo[d][1,3]oxazine-4,3′-piperidin]-2(1H)-one] the IC50 (human factor XIa) was 211 nM and the IC50 (Human plasma kallikrein) was 2.7 nM.

`CC(C1CC1)(n1ncc(C(=O)N2CCC[C@@]3(C2)OC(=O)Nc2ccc(Cl)c(F)c23)c1N)C(F)(F)F` (single isomer, unassigned) [Example 127, (R)-1'-(5-Amino-1-((S or R)-2-cyclopropyl-1,1,1-trifluoropropan-2-y1)-1H-pyrazole-4-carbonyl)-6-chloro-5-fluorospiro[benzo[d][1,3]oxazine-4,3'-piperidin]-2(1H)-one] showed an IC50 (human factor XIa) of 1020 nM and an IC50 (Human plasma kallikrein) of 6.8 nM.

With `CC(C)(n1ncc(C(=O)N2CCC[C@@]3(C2)OC(=O)Nc2ccc(Cl)c(F)c23)c1N)C(F)(F)F` [Example 49, (R)-1'-(5-Amino-1-(1,1,1-trifluoro-2-methylpropan-2-y1)-1H-pyrazole-4-carbonyl)-6-chloro-5-fluorospiro[benzo[d][1,3]oxazine-4,3'-piperidin]-2(1H)-one] the IC50 (human factor XIa) was 2930 nM and the IC50 (Human plasma kallikrein) was 16.9 nM.

`COCCn1ncc(C(=O)N2CCC[C@@]3(C2)OC(=O)Nc2ccc(Cl)c(F)c23)c1N` [Example 24, (R)-1'-(5-Amino-1-(2-methoxyethyl)-1H-pyrazole-4-carbonyl)-6-chloro-5-fluorospiro[benzo[d][1,3]oxazine-4,3'-piperidin]-2(1H)-one] showed an IC50 (human factor XIa) of 425 nM and an IC50 (Human plasma kallikrein) of 10.9 nM.

With `CC(C)c1ccccc1-n1ncc(C(=O)N2CCC[C@@]3(C2)OC(=O)Nc2ccc(Cl)c(F)c23)c1N` [Example 81, (R)-1'-(5-Amino-1-(2-isopropylphenyl)-1H-pyrazole-4-carbonyl)-6-chloro-5-fluorospiro[benzo[d][1,3]oxazine-4,3'-piperidin]-2(1H)-one] the IC50 (human factor XIa) was 353 nM and the IC50 (Human plasma kallikrein) was 5.5 nM.

In the case of `Nc1c(C(=O)N2CCC[C@@]3(C2)OC(=O)Nc2ccc(Cl)c(F)c23)cnn1CC1(F)CC1` [Example 29, (R)-1'-(5-Amino-1-((1-fluorocyclopropyl)methyl)-1H-pyrazole-4-carbonyl)-6-chloro-5-fluorospiro[benzo[d][1,3]oxazine-4,3'-piperidin]-2(1H)-one], the IC50 (human factor XIa) is reported as 705 nM and the IC50 (Human plasma kallikrein) is reported as 7.9 nM.

For `Nc1c(C(=O)N2CCC[C@@]3(C2)OC(=O)Nc2ccc(Cl)c(F)c23)cnn1Cc1cnccn1` [Example 54, (R)-1'-(5-Amino-1-(pyrazin-2-ylmethyl)-1H-pyrazole-4-carbonyl)-6-chloro-5-fluorospiro[benzo[d][1,3]oxazine-4,3'-piperidin]-2(1H)-one], the IC50 (human factor XIa) was 601 nM and the IC50 (Human plasma kallikrein) was 3.4 nM.

`Nc1c(C(=O)N2CCC[C@@]3(C2)OC(=O)Nc2ccc(Cl)c(F)c23)cnn1C1(c2ccc(F)cc2)CC1` [Example 28, (R)-1'-(5-Amino-1-(1-(4-fluorophenyl)cyclopropyl)-1H-pyrazole-4-carbonyl)-6-chloro-5-fluorospiro[benzo[d][1,3]oxazine-4,3'-piperidin]-2(1H)-one] gave an IC50 (human factor XIa) of 112 nM and an IC50 (Human plasma kallikrein) of 2.9 nM.

With `Nc1c(C(=O)N2CCC[C@@]3(C2)OC(=O)Nc2ccc(Cl)c(F)c23)cnn1-c1ccccc1OC1CCC1` [Example 97, (R)-1'-(5-Amino-1-(2-cyclobutoxyphenyl)-1H-pyrazole-4-carbonyl)-6-chloro-5-fluorospiro[benzo[d][1,3]oxazine-4,3'-piperidin]-2(1H)-one] the IC50 (human factor XIa) was 1290 nM and the IC50 (Human plasma kallikrein) was 8 nM.

For `Nc1c(C(=O)N2CCC[C@@]3(C2)OC(=O)Nc2ccc(Cl)c(F)c23)cnn1-c1ccccc1C(F)(F)F` [Example 77, (R)-1'-(5-Amino-1-(2-(trifluoromethyl)phenyl)-1H-pyrazole-4-carbonyl)-6-chloro-5-fluorospiro[benzo[d][1,3]oxazine-4,3'-piperidin]-2(1H)-one], the IC50 (human factor XIa) was 399 nM and the IC50 (Human plasma kallikrein) was 17.3 nM.
